Among the data in BigSolDB 2.1 are solubility (mole fraction) values, retold here.

As usually defined, the solubility (mole fraction) is the moles of solute divided by all moles in the saturated solution.

`COc1ccc(Nc2nc(CC(C)O)ns2)cc1` (stereo not given): the solubility (mole fraction) was 9.2e-06 (in n-hexane, 293.2 K); 1.51e-05 (in n-hexane, 298.2 K); 2.02e-05 (in n-hexane, 303.2 K); 3.51e-05 (in n-hexane, 310.2 K); 4.8e-05 (in n-hexane, 315.2 K); 0.0466 (in n-octanol, 293.2 K). The compound also registered a solubility (mole fraction) (in n-octanol, 298.2 K) of 0.0627; a solubility (mole fraction) (in n-octanol, 303.2 K) of 0.0694; a solubility (mole fraction) (in n-octanol, 310.2 K) of 0.101; a solubility (mole fraction) (in n-octanol, 315.2 K) of 0.121.

Turning to `Cc1ccc(Cl)cc1Nc1nc(CC(C)O)ns1` (stereo not given), the solubility (mole fraction) is 2.95e-05 (in n-hexane, 293.2 K); 3.79e-05 (in n-hexane, 298.2 K); 4.73e-05 (in n-hexane, 303.2 K); 5.55e-05 (in n-hexane, 310.2 K); 6.64e-05 (in n-hexane, 315.2 K); 0.0441 (in n-octanol, 288.2 K). Also, the solubility (mole fraction) came to 0.0465 (in n-octanol, 290.7 K); 0.0488 (in n-octanol, 293.2 K); 0.0515 (in n-octanol, 295.7 K); 0.054 (in n-octanol, 298.2 K).

For the compound `Cc1ccc(Nc2nc(CC(C)O)ns2)cc1Cl` (stereo not given), the solubility (mole fraction) (in n-hexane, 293.2 K) turned out to be 3.2e-06; the solubility (mole fraction) (in n-hexane, 298.2 K) is 4.8e-06; the solubility (mole fraction) (in n-hexane, 303.2 K) was found to be 6.2e-06; the solubility (mole fraction) (in n-hexane, 310.2 K) was 9.2e-06; the solubility (mole fraction) (in n-hexane, 315.2 K) stood at 1.28e-05; the solubility (mole fraction) (in n-octanol, 293.2 K) turned out to be 0.0121. Also, the solubility (mole fraction) runs as follows: (in n-octanol, 298.2 K) 0.0134; (in n-octanol, 303.2 K) 0.0166; (in n-octanol, 310.2 K) 0.021; (in n-octanol, 315.2 K) 0.0251.

For the compound `CC(O)Cc1nsc(Nc2cccc(Cl)c2)n1` (stereo not given), the solubility (mole fraction) reads like this: (in n-hexane, 293.2 K) 5.5e-06; (in n-hexane, 298.2 K) 9e-06; (in n-hexane, 303.2 K) 1.32e-05; (in n-hexane, 310.2 K) 2.4e-05; (in n-hexane, 315.2 K) 3.62e-05; (in n-octanol, 293.2 K) 0.0546. The solubility (mole fraction) reads like this: (in n-octanol, 298.2 K) 0.0633; (in n-octanol, 303.2 K) 0.0729; (in n-octanol, 310.2 K) 0.0885; (in n-octanol, 315.2 K) 0.101.

Turning to `Cc1cccc(Nc2nc(CC(C)O)ns2)c1` (stereo not given), the solubility (mole fraction) was determined as 2.49e-05 (in n-hexane, 293.2 K); 3.4e-05 (in n-hexane, 298.2 K); 4.59e-05 (in n-hexane, 303.2 K); 5.6e-05 (in n-hexane, 310.2 K); 7.05e-05 (in n-hexane, 315.2 K); 0.0266 (in n-octanol, 293.2 K). Moreover, the solubility (mole fraction) is, setting by setting: (in n-octanol, 298.2 K) 0.0355; (in n-octanol, 303.2 K) 0.038; (in n-octanol, 310.2 K) 0.0501; (in n-octanol, 315.2 K) 0.0558.

On to `CC(O)Cc1nsc(Nc2ccc(Cl)cc2)n1` (stereo not given), for which the solubility (mole fraction) (in n-hexane, 293.2 K) is 3.5e-06; the solubility (mole fraction) (in n-hexane, 298.2 K) was determined as 5.2e-06; the solubility (mole fraction) (in n-hexane, 303.2 K) stood at 6.9e-06; the solubility (mole fraction) (in n-hexane, 310.2 K) came to 1.13e-05; the solubility (mole fraction) (in n-hexane, 315.2 K) came out at 1.73e-05; the solubility (mole fraction) (in n-octanol, 293.2 K) was 0.0187. For the same compound, the solubility (mole fraction) worked out at 0.0218 (in n-octanol, 298.2 K); 0.0245 (in n-octanol, 303.2 K); 0.029 (in n-octanol, 310.2 K); 0.035 (in n-octanol, 315.2 K).
